Test results taken from PMC6268294, “Synthesis of Chalcones with Anticancer Activities” (Molecules, 2012).
In brackets after ≈: the same amount, converted by molar mass. Read-outs that look alike come from different tables or passages of the source.

How the values were obtained:
[1] = test system: human prostate cancer cell line PC3; experiment: MTT cell viability assay, PC3; type: cell-based; settings: 24 h treatment
Experimental: (§1) A549, PC3, MCF-7, HT-29, WRL68 and MCF-7 cells were obtained from the ATTC (Rockville, MD, USA) and grown in RPMI-1640 medium, 10% fetal bovine serum (FBS) and 1% pen-strep, in humidified conditions at 5% CO2 and 37 °C. The different cell lines mentioned above were used to determine the inhibitory effects of compounds on cell growth using the MTT assay. This colorimetric assay is based on the conversion of the yellow tetrazolium bromide (MTT) to a purple formazan derivative by mitochondrial succinate dehydrogenase in viable cells. Cells were seeded in 96-well plate and incubated for 24 h at 37 °C with 5% CO2 saturation. After incubation, the cells were treated with different concentration of compounds and incubated for another 24 h. After 24 h of drug treatment, 20 µL of MTT solution at 5 mg/mL was added and incubated for 4 h. Dimethyl sulfoxide (DMSO) in volume of 100 µL is added into each well to dissolve the purple formazan formed. The colorimetric assay is measured and recorded at absorbance of 570 nm.

[2] = test system: human lung adenocarcinoma cell line A549; experiment: MTT cell viability assay, A549; type: cell-based; settings: 24 h treatment
Experimental: as §1

[3] = test system: MCF-7 (breast), A549 (lung), PC3 (prostate), HT-29 (colorectal) and WRL68 (liver); experiment: MTT assay, summary over all five cell lines; type: cell-based, human; settings: for IC50: Homo sapiens, all five cell lines, read-out: IC50 in all cell lines
Experimental: as §1

[4] = test system: human breast adenocarcinoma cell line MCF-7; experiment: MTT cell viability assay, MCF-7; type: cell-based; settings: MCF7, 24 h treatment
Experimental: as §1

[5] = test system: human normal liver cell line WRL-68; experiment: MTT cell viability assay, WRL68; type: cell-based; settings: 24 h treatment
Experimental: as §1

MCF-7 cells = experiment: Multiparametric high content screening (HCS) cytotoxicity/apoptosis assay; type: cell-based, human; settings: for cell (membrane) permeability / cytochrome c release / mitochondrial membrane potential / total nuclear intensity (Hoechst 33342 nuclear chromatin staining) / cell loss: MCF-7, compounds 2-6 µg/mL; for cell (membrane) permeability / cytochrome c release / mitochondrial membrane potential / total nuclear intensity (Hoechst 33342 nuclear chromatin staining): tamoxifen 0.04 µg/mL, vs control; for cell loss: data not shown; for apoptosis in MCF-7 cells: shown by multiparameter cytotoxicity assay and caspase-3/7, -8, -9 activities, p < 0.05
[6] = test system: caspase-3/7 in MCF-7 cells; experiment: Caspase-Glo-3/7 activity; type: cell-based, human; settings: MCF-7, 24 h, highest concentration (6 µg/mL for 1); control 30,140 RLU
Experimental: (§2) Due to the observation of significant cytotoxicity of selected compounds towards MCF-7 cells, the following analyses were done on them only. Cells were treated with compound 1 (1A- 3 µg/mL; 1B- 6 µg/mL), 23 (23A- 3 µg/mL; 23B- 6 µg/mL), 25 (25A- 2 µg/mL; 25B- 4 µg/mL) and 5 (5A- 3 µg/mL; 5B- 6 µg/mL).
(§3) Activity of cellular caspases was measured using the Caspase-Glo-9, Caspase-Glo-3/7 and Caspase-Glo-8 assay reagents (Promega), according to the manufacturer's instructions. The assays provide a luminogenic caspase-3/caspase-7 or caspase-8 or caspase-9 substrate, respectively, in a buffer system optimized for caspase activity measurement in cell lysates. The luciferase signal generated is proportional to the amount of caspase activity present. MCF-7 cells have no caspase-3 activity due to functional deletion of the CASP-3 gene. Therefore, the activity measured in this test is that of caspase-7. Briefly, cells were plated in opaque 96-well plates in triplicate and treated with […]. After 24 h treatment with compounds 1, 23, 25 and 5 as mentioned before, the assay reagents were added to the plates at room temperature and incubated for 60 min, and the luminescence was measured using a plate reader. All assays were done in triplicate, and means ± SD were calculated for each condition.

[7] = test system: human adenocarcinoma cell line HT-29 (colorectal cancer); experiment: MTT cell viability assay, HT-29; type: cell-based; settings: 24 h treatment
Experimental: as §1

ROS in MCF-7 cells = experiment: Intracellular ROS level (DCFDA); type: cell-based, human; settings: MCF-7, 24 h, high concentration (6 µg/mL; 25: 4 µg/mL), vs untreated control, p < 0.05
Experimental: as §2
The production of ROS was estimated by fluorescence using the redox-sensitive fluorescent probe DCFDA (Sigma). The oxidation of DCFDA by ROS converts the molecule to 2′,7′-dichlorodihydrofluorescein (DCF), which is highly fluorescent. Thus, ROS production by stimulated cells causes an increase in the fluorescence signal over time. ROS assays were performed as previously described (13). Briefly, the MCF-7 cells were seeded in 96-well plates (5 × 10^4 cells/well) and allowed to attach for 24 h. After 24 h treatment with compounds 1, 23, 25 and 5 as mentioned before, the cells were washed three times with PBS and incubated for 60 min with […] DCFDA at room temperature. Again the wells were washed with PBS. Fresh PBS was added (100 μL/well) and DCF fluorescence was detected using a Tecan Infinite M200 fluorescence microplate reader at excitation and emission wavelengths of 485 and 528 nm, respectively. The fluorescence intensity unit of treatments was compared with control.

caspase-8 in MCF-7 cells = experiment: Caspase-Glo-8 activity; type: cell-based, human; settings: MCF-7, 24 h, highest concentrations (6 µg/mL; 25: 4 µg/mL); control printed 50892 RLU; p < 0.05
Experimental: as §2, §3

IC50 [1] [mg/L] | IC50 [2] [mg/L] | IC50 ([3]; MTT) [mg/L] | IC50 [4] [mg/L] | IC50 [7] [mg/L] | melting point [°C] | Structure (SMILES) | cytotoxic effect in words ([3]; all cell lines, MTT) | IC50 [5] [mg/L] | cell (membrane) permeability (MCF-7 cells) | cytochrome c release (MCF-7 cells) | mitochondrial membrane potential (MCF-7 cells) | total nuclear intensity (Hoechst 33342 nuclear chromatin staining) (MCF-7 cells) | cell loss (MCF-7 cells) | apoptosis in MCF-7 cells (MCF-7 cells) | caspase-3/7 activity at highest concentration [6] [RLU] | cytotoxic effect in words [3] | ROS increase at high concentration (ROS in MCF-7 cells) [fold] | caspase-8 activity at highest concentration (caspase-8 in MCF-7 cells)
9.11 ± 0.9 (≈ 43.7 µM) | 16.8 ± 1.08 (≈ 80.5 µM) | < 20 | 6.88 ± 0.219 (≈ 33 µM) | 10.1 ± 1.01 (≈ 48.5 µM) |  | O=C(/C=C/c1ccccc1)c1ccccc1 [Compound 1, 1,3-Diphenylpropenone] | high cytotoxicity | 10.6 ± 0.89 (≈ 50.7 µM) | increased cell permeability | cytochrome c release from mitochondria | loss of mitochondrial membrane potential | increased total nuclear intensity | statistically significant cell loss | capable in eliciting apoptosis | 210430 |  |  | 
13.8 ± 1.2 (≈ 57 µM) | 19.9 ± 1.66 (≈ 82.2 µM) | < 20 | 7.99 ± 0.81 (≈ 32.9 µM) | 13.2 ± 1.2 (≈ 54.6 µM) | 53 to 54 | O=C(/C=C/c1ccccc1Cl)c1ccccc1 [Compound 5, 3-(2-Chlorophenyl)-1-phenylpropenone] |  | 11.5 ± 1.1 (≈ 47.2 µM) | increased cell permeability | cytochrome c release from mitochondria | loss of mitochondrial membrane potential | increased total nuclear intensity | statistically significant cell loss | capable in eliciting apoptosis |  | high cytotoxicity | 2.7 | 
9.49 ± 0.7 (≈ 39.8 µM) | 16.8 ± 1.76 (≈ 70.5 µM) | < 20 | 6.87 ± 1.2 (≈ 28.8 µM) | 13 ± 0.54 (≈ 54.5 µM) | 165 to 167 | Cc1ccc(C(=O)/C=C/c2ccccc2O)cc1 [Compound 23, 3-(2-Hydroxyphenyl)-1-p-tolylpropenone] |  | 9.53 ± 1.5 (≈ 40 µM) | increased cell permeability | cytochrome c release from mitochondria | loss of mitochondrial membrane potential | increased total nuclear intensity | statistically significant cell loss | capable in eliciting apoptosis |  | high cytotoxicity |  | 18,342 RLU
